Where a chain is given by its changes, count along the chain named. Names may count otherwise.

In experiment [1] the test system is CT26WT cells, a murine colon cancer cell line. The experiment is described as follows: CT26WT syngeneic colon tumor model, OX86 and Compound 1. It counts as in vivo, BALB/c mice. To be noted: OX86 0.08 mg/kg QW i.p.; Compound 1 15 mg/kg QD p.o. As to the method:
Female BALB/c mice were subcutaneously implanted with 1×10^5 CT26WT cells, a murine colon cancer cell line, in 100 μL PBS in the right flank. After inoculation, the mice were randomized into 4 groups with 20 animals in each group according to the inoculation order. The mice were treated with vehicle (PEG400/0.1N HCl in saline, 40/60) as a negative control.
As monotherapy, OX86 was administered at 0.08 mg/kg once per week (QW) by intraperitoneal (i.p.) injection
Compound 1 was administered as a single therapy at 15 mg/kg once per day (QD) by oral gavage (p.o.). OX86 was administered at 0.08 mg/kg once per week (QW) by intraperitoneal (i.p.) injection in combination with Compound 1 at 15 mg/kg once per day (QD) by oral gavage (p.o.). Tumor volume was determined twice weekly in two dimensions using a caliper, and was expressed in mm3 using the formula: V=0.5(a×b2) where a and b are the long and short diameters of the tumor, respectively. Data is presented as mean tumor volume ±standard error of the mean (SEM). Tumor growth inhibition (TGI) is calculated using the following formula: […]

The subject of experiment [2] is MC38 cells, a murine colon adenocarcinoma line. As to the kind of experiment: MC38 syngeneic colon adenocarcinoma model, 1A7.gr1 and Compound 1. In kind it is in vivo, C57BL/6 mice. On the procedure: Female C57BL/6 mice were subcutaneously implanted with 2×10^7 MC38 cells, a murine colon adenocarcinoma line; in 100 μL PBS in the right frank. After inoculation, mice were randomized into 4 groups according to tumor volume. Mice were treated with vehicle (PEG400/0.1N HCL in saline, 40/60) as a control. 1A7.gr1 (sequence previously disclosed in US 20150307617) was confirmed to bind to mouse OX40 in house.
The 1A7.gr1 antibody was administered at 2 mg/kg per week by intraperitoneal injection as a single agent. […] The 1A7.gr1 antibody in combination with Compound 1 was administered at the same dosages and routes of administration as described above. Tumor volumes were determined twice weekly.

Experiment [3] has as its system tyrosine kinases, including RET, CBL, CHR4q12, DDR and Trk. To be noted: cited from earlier work.
The target in experiment [4] is T1, interaction between OX40 and OX40 ligand (Mus musculus, UniProt P47741).
T1 sequence (P47741 20-272): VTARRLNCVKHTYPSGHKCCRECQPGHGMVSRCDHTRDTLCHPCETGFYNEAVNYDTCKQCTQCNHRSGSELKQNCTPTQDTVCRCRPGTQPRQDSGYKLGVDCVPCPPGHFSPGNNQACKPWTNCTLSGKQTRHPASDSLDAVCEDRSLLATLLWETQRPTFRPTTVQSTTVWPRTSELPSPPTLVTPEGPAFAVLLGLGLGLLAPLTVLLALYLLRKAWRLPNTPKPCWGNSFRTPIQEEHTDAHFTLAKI
T1 sequence (P43488 1-198 partner): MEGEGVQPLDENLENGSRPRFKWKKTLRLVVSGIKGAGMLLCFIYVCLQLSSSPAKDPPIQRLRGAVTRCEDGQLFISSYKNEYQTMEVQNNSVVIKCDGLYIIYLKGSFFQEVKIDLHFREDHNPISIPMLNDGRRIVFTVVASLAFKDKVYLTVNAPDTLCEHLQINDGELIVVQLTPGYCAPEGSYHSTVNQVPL
Conditions: cited from earlier work.

The target of experiment [5] is T2, full-length human OX40 expressed on HuT78/OX40 cells (human, UniProt P43489 29-277).
T2 sequence: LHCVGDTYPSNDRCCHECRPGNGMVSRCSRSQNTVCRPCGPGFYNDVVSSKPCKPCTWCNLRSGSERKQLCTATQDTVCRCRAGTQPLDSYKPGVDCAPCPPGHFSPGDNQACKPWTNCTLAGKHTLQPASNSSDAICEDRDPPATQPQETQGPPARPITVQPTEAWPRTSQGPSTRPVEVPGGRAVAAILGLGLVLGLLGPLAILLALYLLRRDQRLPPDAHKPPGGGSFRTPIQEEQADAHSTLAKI
As to the kind of experiment: FACS; cells not named in the sentence (taken as OX40-expressing cells); reference 445-2. A general note: In flow cytometry, cells or beads pass a laser one at a time.

For experiment [6], the target named is T3, recombinant OX40 protein with a His tag (Cat: 10481-H08H, Sino Biological) (UniProt P43489 29-216).
T3 construct: Bought protein; not shown: His tag
T3 sequence (looked up): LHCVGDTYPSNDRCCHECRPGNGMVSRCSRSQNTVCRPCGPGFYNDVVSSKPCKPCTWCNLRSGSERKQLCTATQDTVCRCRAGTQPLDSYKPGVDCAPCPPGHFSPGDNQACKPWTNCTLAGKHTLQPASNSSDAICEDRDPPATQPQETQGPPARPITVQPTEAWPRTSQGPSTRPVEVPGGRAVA
The experiment is described as follows: Biacore; OX40 protein not given; reference 445-2.

The mark [7] stands for this setting: 1A7.gr1 2 mg/kg QW i.p., Compound 1 15 mg/kg QD p.o.

Regarding `COCCNCc1ccc(-c2cc3nccc(Oc4ccc(NC(=O)C5(C(=O)Nc6ccc(F)cc6)CC5)cc4F)c3s2)nc1` [Compound 1], in experiment [1], the “Mean Tumor Volume on Day 24 (mean ± SEM)” value is 177.4 ± 28.5 mm^3, the “TGI (%) on Day 24” value is 91% and the “Tumor Free Animal (%) on Day 69 (complete responders)” value was found to be 5%. In experiment [2] (setting [7]), the “Mean Tumor Volume on Day 29 (mean ± SEM)” value came out at 712.5 mm^3 and the “TGI (%) on Day 22” value stood at 80%. Moreover, in experiment [2] (1A7.gr1 2 mg/kg QW×4, Compound 1 15 mg/kg QD×22), the “complete response / mice being tumor free on day 22” value was determined as 80%. In experiment [3], the “inhibition of tyrosine kinases” value is listed as “potent inhibition”.

B1: OX86: rat anti-mouse OX40 antibody of WO2016/057667 engineered with mouse IgG2a constant regions, VH SEQ ID NO: 32, VL SEQ ID NO: 33 (antibody, V domains shown)
VH: QVQLKESGPGLVQPSQTLSLTCTVSGFSLTGYNLHWVRQPPGKGLEWMGRMRYDGDTYYNSVLKSRLSISRDTSKNQVFLKMNSLQTDDTAIYYCTRDGRGDSFDYWGQGVMVTVSS
VL: DIVMTQGALPNPVPSGESASITCRSSQSLVYKDGQTYLNWFLQRPGQSPQLLTYWMSTRASGVSDRFSGSGSGTYFTLKISRVRAEDAGVYYCQQVREYPFTFGSGTKLEIK
modifications: mouse IgG2a constant regions
For B1, in experiment [1], the “Mean Tumor Volume on Day 24 (mean ± SEM)” value is on record as 308.5 ± 115.8 mm^3, the “TGI (%) on Day 24” value stood at 84% and the “Tumor Free Animal (%) on Day 69 (complete responders)” value stood at 50%. The “blocking of OX40-OX40 ligand interaction” value in experiment [4] is “does not block the interaction between OX40 and OX40 ligand”.

B2: 445-2 variant with K28T in the heavy chain and S24R in the light chain (antibody, V domains shown)
VH: QVQLVQSGAEVKKPGSSVKVSCKASGYTFTSYIIHWVRQAPGQGLEWMGYINPYNEGTRYAQKFQGRVTLTADKSTSTAYMELSSLRSEDTAVYYCARGYYGSSYAMDYWGQGTTVTVSS
VL: DIQMTQSPSSLSASVGDRVTITCRASQGISNYLNWYQQKPGKAIKLLIYDASTLYSGVPSRFSGSGSGTDFTLTISSLQPEDFATYYCQQYSKLPYTFGGGTKVEIK
Take B2: in experiment [5], the “fold increase to the EC50 over the original 445-2 antibody” value was 1.7 fold.

B3: 445-2 variant with Y27G in the heavy chain and S24R in the light chain (antibody, V domains shown)
VH: B2 VH with Y27G, T28K
VL: B2 VL
On to B3, for which the “fold increase to the KD over the original 445-2 antibody” value in experiment [6] is 1.7 fold.

The values are drawn from patent US20230022859A1, “TREATMENT OF CANCER WITH ANTI-OX40 ANTIBODIES AND MULTI-KINASE INHIBITORS” (BEIGENE, LTD., priority 2019, published 2023).
